One assay concerns E. faecium 3303. Put plainly: microbe, parasite or virus in culture. The format is cell-based, Enterococcus faecium. As to conditions: for activities of the terpene with CBC, CBO, or CBG: terpene-cannabinoid combinations; for MIC Alone / MIC In combination / Max. fold change in MIC: E. faecium 3303; for MIC Alone: compound alone in checkerboard; for Max. fold change in MIC: decrease. The source says:
In therapeutic applications, synergy between active ingredients occurs when an observed combined therapeutic effect is greater than the sum of therapeutic effects of individual active ingredients, or a new therapeutic effect is produced that the active ingredients could not produce alone. […] In this context, the enhancement of therapeutic effect may take the form of increased efficacy or potency and/or decreased adverse effects. The synergistic effect may be mediated in whole or in part by the pharmacokinetics and/or pharmacodynamics of the active ingredients in a subject, so that the amount and proportion of the ingredients in the formulation may be synergistic in vivo. This in vivo synergy may be effected with a formulation that includes the active ingredients in amounts and proportions that are also synergistic in in vitro assays of efficacy. As used herein, the term “synergistically effective amounts” accordingly refers to amounts that are synergistic in vivo and/or in vitro. A numeric quantification of synergy is often expressed as a fractional inhibitory concentration index (FICI), which represents the sum of the fractional inhibitory concentrations (FICs) of each drug tested, where the FIC is determined for each drug by dividing the minimum inhibitory concentration (MIC, the lowest concentration of the drug which prevents visible growth of the bacterium in a standard in vitro assay-standard colorometric assay based on resazurin) of each drug when used in combination by the MIC of each drug when used alone. In very general terms, a FICI lower or higher than 1 indicates positively correlated activity (at least additive or potentiation) or an absence of positive interactions, respectively. More definitively, synergy of two compounds may be conservatively defined as a FICI of ::::0.5 (see Odds, 2003; with additivity or potentiation corresponding to a FICI of >0.5 to ::::0.75; no interaction (indifference) corresponding to a FICI of >1 to ::::4; and antagonism corresponding to a FICI of >>4). Synergy of three compounds has been defined as a FICI of ::::1.0. (Berenbaum, 1978; Yu et al., 1980). To estimate the optimal concentrations in triple combinations, the optimal concentrations of trans-caryophyllene and cannabinoid were utilized in combination with a series of daptomycin dilutions.
(§1) Pre-cultures of bacteria growing in their corresponding liquid media (defined below) were diluted to an 00600 of 0.0025 and 100 μl was added to 100 μl of medium containing serial 2-fold dilutions of cannabinoid (cannabinoid stocks, in methanol or acetonitrile for acidic forms, were diluted in growth medium) in 96-well plates. Plates were then incubated for 20-24 h at 37° C., and growth was recorded as 00600 in a Thermo Scientific™ Varioskan™ Flash Multimode Reader.
Method for Tables 4-7. Interaction of Cannabinoids CBC, CBD and CBG with Terpenes and Daptomycin:
(§2) FICI values was determined in a 96 well checkerboard format using the MIC assay for cannabinoids (compound A), terpenes (compound B), and daptomycin (compound C) alone and in combinations. Terpene stocks were prepared in DMSO and diluted in the growth medium. The fractional inhibitory concentration for each compound was calculated as follows: FICA=(MIC of compound A in the presence of compound B)/(MIC of compound A alone). Similarly, the FICs for compounds Band C were calculated. The FICI was calculated as FICA plus FICs plus FICc.

Another assay relates to Enterococcus faecalis. Briefly: MIC determination. It is filed as cell-based.
The subject of assay [1] is Staphylococcus epidermidis ATCC 12228. Briefly: MIC determination. Conditions: Staphylococcus epidermidis, ATCC12228. It is filed as cell-based.
In assay [2] the test system is E. faecium clinical isolate 69C6 (vancomycin resistant). Put plainly: microbe, parasite or virus in culture. Conditions: Enterococcus faecium.
The test system of assay [3] is Staphylococcus epidermidis ATCC 14990. Put plainly: MIC determination. Conditions: Staphylococcus epidermidis, ATCC14990. The format is cell-based.
The test system of assay [4] is E. faecium clinical isolate 58C9 (vancomycin and daptomycin resistant). Briefly: microbe, parasite or virus in culture. Conditions: Enterococcus faecium.
For assay [5], the system named is E. faecium clinical isolate 55A6 (vancomycin and daptomycin resistant). Briefly: microbe, parasite or virus in culture. Conditions: Enterococcus faecium.
The test system of assay [6] is Mycobacterium tuberculosis H37Rv. Briefly: MIC determination (PrestoBlue). It is filed as cell-based.
The subject of assay [7] is Enterococcus faecium 33D3. Put plainly: microbe, parasite or virus in culture.
Assay [8] relates to Staphylococcus aureus MRSA. Put plainly: microbe, parasite or virus in culture. It is filed as cell-based.
The subject of assay [9] is Mycobacterium abscessus ATCC 19977. Briefly: MIC determination (resazurin). It is filed as cell-based. (In general: Resazurin is reduced to fluorescent resorufin, in cell work by metabolically active cells.)
For assay [10], the system named is Streptococcus pyogenes ATCC 51878. Put plainly: MIC determination. It is filed as cell-based. Conditions: Streptococcus pyogenes, ATCC51878.
The test system of assay [11] is Enterococcus faecium 33D3.
Assay [12] deals with E. faecium clinical isolate 69C6 (vancomycin resistant). As to conditions: clinical enterococcal strain 69C6, vancomycin resistant.
The subject of assay [13] is E. faecium clinical isolate 58C9 (vancomycin and daptomycin resistant). Conditions: clinical enterococcal strain 58C9, vancomycin and daptomycin resistant.
Assay [14] has as its system E. faecium clinical isolate 55A6 (vancomycin and daptomycin resistant). Conditions: clinical enterococcal strain 55A6, vancomycin and daptomycin resistant.
For another assay, the system named is E. faecium VRE 55A6. Briefly: microbe, parasite or virus in culture. The format is cell-based, Enterococcus faecium. As to conditions: E. faecium VRE 55A6.
Source text: In therapeutic applications, synergy between active ingredients occurs when an observed combined therapeutic effect is greater than the sum of therapeutic effects of individual active ingredients, or a new therapeutic effect is produced that the active ingredients could not produce alone. […] In this context, the enhancement of therapeutic effect may take the form of increased efficacy or potency and/or decreased adverse effects. The synergistic effect may be mediated in whole or in part by the pharmacokinetics and/or pharmacodynamics of the active ingredients in a subject, so that the amount and proportion of the ingredients in the formulation may be synergistic in vivo. This in vivo synergy may be effected with a formulation that includes the active ingredients in amounts and proportions that are also synergistic in in vitro assays of efficacy. As used herein, the term “synergistically effective amounts” accordingly refers to amounts that are synergistic in vivo and/or in vitro. A numeric quantification of synergy is often expressed as a fractional inhibitory concentration index (FICI), which represents the sum of the fractional inhibitory concentrations (FICs) of each drug tested, where the FIC is determined for each drug by dividing the minimum inhibitory concentration (MIC, the lowest concentration of the drug which prevents visible growth of the bacterium in a standard in vitro assay-standard colorometric assay based on resazurin) of each drug when used in combination by the MIC of each drug when used alone. In very general terms, a FICI lower or higher than 1 indicates positively correlated activity (at least additive or potentiation) or an absence of positive interactions, respectively. More definitively, synergy of two compounds may be conservatively defined as a FICI of ::::0.5 (see Odds, 2003; with additivity or potentiation corresponding to a FICI of >0.5 to ::::0.75; no interaction (indifference) corresponding to a FICI of >1 to ::::4; and antagonism corresponding to a FICI of >>4). […] (Berenbaum, 1978; Yu et al., 1980). To estimate the optimal concentrations in triple combinations, the optimal concentrations of trans-caryophyllene and cannabinoid were utilized in combination with a series of daptomycin dilutions.
as §1, §2

Where [15] appears, read: Mycobacterium tuberculosis, H37RV, Media 7H9, read-out: MIC.
Where [16] appears, read: Mycobacterium tuberculosis, H37RV, Media PB, read-out: MIC.
The mark [17] stands for this setting: 33D3, Enterococcus faecium 33D3 (Table 1).
[18] abbreviates: 33D3, clinical enterococcal strain 3303.
Setting [19] is: Mycobacteroides abscessus, ATCC19977.
Where [20] appears, read: triple, with daptomycin and CBC.
The mark [21] stands for this setting: triple, with daptomycin and CBD.
Setting [22] is: triple, with daptomycin and CBG.

Molecules are shown by their SMILES. Values after ≈ are worked out from the molar mass of the structure shown. Values joined by “and” are separate entries in the source; they are usually repeats but may differ in a detail not shown here. Identical values can stand only once. Like-named read-outs stand apart in the source and are kept apart here.

In the case of `C/C1=C\CC/C(C)=C/CC(C)(C)/C=C/C1` [a-humulene], in the assay on E. faecium 3303, the “activities of the terpene with CBC, CBO, or CBG” value is recorded as “synergistic activities”.

Regarding `C=C(C)[C@@H]1CCC(C)=C[C@H]1c1c(O)cc(CCCCC)c(C(=O)O)c1O` [CBDA, cannabidiolic acid], the MIC worked out at 16 µg/mL (≈ 44.6 µM) in the assay with Enterococcus faecalis; 4 µg/mL (≈ 11.2 µM) in assay [1]; 16 µg/mL (≈ 44.6 µM) in assay [2]; 4 µg/mL (≈ 11.2 µM) in assay [3]; 16 µg/mL (≈ 44.6 µM) in assay [4]; 16 µg/mL (≈ 44.6 µM) in assay [5]. In addition, the MIC in [6] (setting [15]) was 2 µg/mL (≈ 5.58 µM); in [6] (setting [16]), 4 µg/mL (≈ 11.2 µM); in [7] (setting [17]), 16 µg/mL (≈ 44.6 µM); in [7] (setting [18]), 16 µg/mL (≈ 44.6 µM); in assay [8] it was 16 µg/mL (≈ 44.6 µM); in assay [9] (setting [19]) it was 32 µg/mL (≈ 89.3 µM). This molecule displayed an MIC in [10] of 8 µg/mL (≈ 22.3 µM).

Turning to `CCCCCc1cc(O)c(C/C=C(\C)CCC=C(C)C)c(O)c1C(=O)O` [CBGA, cannabigerolic acid], the MIC against Enterococcus faecalis came to 8 µg/mL (≈ 22.2 µM); in assay [1], 2 µg/mL (≈ 5.55 µM); in assay [2], 8 µg/mL (≈ 22.2 µM); in assay [3] it was 2 µg/mL (≈ 5.55 µM); in [4] it was 16 µg/mL (≈ 44.4 µM); in assay [5], 8 µg/mL (≈ 22.2 µM). Besides, the MIC in [6] (setting [15]) stood at 4 µg/mL (≈ 11.1 µM); in assay [6] (setting [16]), 2 µg/mL (≈ 5.55 µM); in assay [7] (setting [17]) it was 16 µg/mL (≈ 44.4 µM); in [7] (setting [18]), 16 µg/mL (≈ 44.4 µM); in assay [8], 1 µg/mL (≈ 2.77 µM); in [9] (setting [19]), 16 µg/mL (≈ 44.4 µM). For the same molecule, the MIC in [10] was found to be 2 µg/mL (≈ 5.55 µM).

With `CCCCCc1cc2c(c(O)c1C(=O)O)C=CC(C)(CCC=C(C)C)O2` (stereo not shown) [CBCA, cannabichromic acid], the MIC is 4 µg/mL (≈ 11.2 µM) against Enterococcus faecalis; 4 mg/L (≈ 11.2 µM) in assay [11] (Enterococcus faecium 33D3 (Table 1)); 4 mg/L (≈ 11.2 µM) in assay [11] (clinical enterococcal strain 3303); 4 mg/L (≈ 11.2 µM) in assay [12]; 2 µg/mL (≈ 5.58 µM) in assay [1]; 4 mg/L (≈ 11.2 µM) in assay [13]. The MIC was 2 mg/L (≈ 5.58 µM) in assay [14]; 2 µg/mL (≈ 5.58 µM) in [3]; 2 µg/mL (≈ 5.58 µM) in [6] (Media 7H9); 4 µg/mL (≈ 11.2 µM) in assay [6] (Media PB); 4 µg/mL (≈ 11.2 µM) in [8]; 4 µg/mL (≈ 11.2 µM) in assay [9] (Mycobacterium abscessus ATCC 19977). The MIC in [10] is 0.5 to 1 µg/mL.

Turning to `C=C1CC/C=C(\C)CC[C@@H]2[C@@H]1CC2(C)C` (relative stereo) [Trans-caryophyllene, trans-caryophyllene], the “MIC Alone” value with E. faecium 3303 was >16 mg/L and 16 mg/L; with E. faecium 3303 (listed as Tram-caryophyllene), 32 mg/L. The “MIC In combination” value is 0.25 mg/L with E. faecium 3303 (pairwise, with CBC); 2 mg/L with E. faecium 3303 (pairwise, with CBD); 4 mg/L in the assay on E. faecium 3303 (pairwise, with CBG); 4 mg/L in the assay with E. faecium 3303 (pairwise, with daptomycin); 2 mg/L in the assay with E. faecium 3303 (setting [20]); 2 mg/L in the assay on E. faecium 3303 (setting [21]). In addition, the “MIC In combination” value in the assay on E. faecium 3303 (setting [22]) was 1 mg/L; in the assay on E. faecium VRE 55A6 (pairwise, with CBC) it was 1 mg/L; with E. faecium VRE 55A6 (pairwise, with CBD), 8 mg/L; with E. faecium VRE 55A6 (pairwise, with CBG), greater than 32 mg/L; in the assay on E. faecium VRE 55A6 (pairwise, with daptomycin) it was 2 mg/L; with E. faecium VRE 55A6 (setting [20]) it was 2 mg/L. Moreover, the “MIC In combination” value in the assay with E. faecium VRE 55A6 (setting [21]) and with E. faecium VRE 55A6 (setting [22]) was 2 mg/L each time. Also, the “Max. fold change in MIC” value in the assay on E. faecium 3303 (pairwise, with CBC) is 64 l fold; in the assay on E. faecium 3303 (pairwise, with CBG) it was 8″′ fold; with E. faecium 3303 (pairwise, with daptomycin), >4 l fold and >4″′ fold; with E. faecium 3303 (setting [20]), 8 l fold; in the assay with E. faecium 3303 (setting [21]), 8 fold; with E. faecium 3303 (setting [22]), 16 fold. The “Max. fold change in MIC” value was greater than 32 fold in the assay on E. faecium VRE 55A6 (pairwise, with CBC); greater than 4 fold with E. faecium VRE 55A6 (pairwise, with CBD); “none” in the assay with E. faecium VRE 55A6 (pairwise, with CBG); greater than 8 fold in the assay with E. faecium VRE 55A6 (pairwise, with daptomycin); greater than 32 fold in the assay on E. faecium VRE 55A6 (setting [20]); greater than 32 fold in the assay with E. faecium VRE 55A6 (setting [21]). Further, the “Max. fold change in MIC” value in the assay on E. faecium VRE 55A6 (setting [22]) is reported as greater than 32 fold. In addition, the “activities of the terpene with CBC, CBO, or CBG” value in the assay on E. faecium 3303 is listed as “synergistic activities”.
